Experimental data: paper PMC11779965 (Nature Communications, 2025)

Key:
physchem = settings: pH 7.4, […]
female CD-1 mice = experiment: Catalepsy bar test; type: in vivo; settings: 200 mg/kg IP, 90 min after dosing
[1] = clogP calculated with ChemAxon Marvin Sketch; settings: 78 vs Sulfadiazine

| Compound | Catalepsy score compared to Vehicle-treated group (in words) (female CD-1 mice) | also measured |
| --- | --- | --- |
| Nc1ccc(S(=O)(=O)Nc2ncccn2)cc1 [Sulfadiazine] | – | logD (physchem): -0.8 |
| CCN(CC)CCNC(=O)c1cc(S(C)(=O)=O)ccc1OC [Tiapride] | significantly higher | – |
| CCN(CC)CCNC(=O)c1cc(S(C)(=O)=O)cnc1OC [Compound 79] | remained at the level of the Control Vehicle-treated group | – |
| CS(=O)(=O)c1cnc(NS(=O)(=O)c2ccc(N)cc2)nc1.Cl [Compound 78] | – | Decrease of lipophilicity on replacement of H with MeSO2 [1]: ca. 1.2 clogP units |
